How the values were obtained:
MpAC1-233 = system: T1, MpAC1-233; test: cAMP formation determined by HPLC; type: biochemical, Mycolicibacterium phlei; settings: 5 mM Mn2+, no Cu2+, pH 8.0, 30 °C; Hill coefficient 0.9 ± 0.1; read-out: SC50 [mM ATP]
T1 construct: gene MpAC; full length, residues 1-233 (CHD plus C-terminal YHS domain); His-TEV tag removed, N-terminal GS dipeptide remains; codon-optimized gene in E. coli BL21(DE3)[pRep4]
Text: cAMP formation determined by HPLC on MpAC1-233

MpAC1-182 = system: T2, MpAC1-182; test: cAMP formation determined by HPLC; type: biochemical, Mycolicibacterium phlei; settings: 5 mM Mn2+, no Cu2+, pH 8.0, 30 °C; Hill coefficient 1.5 ± 0.2; read-out: SC50 [mM ATP]
T2 construct: gene MpAC; isolated catalytic domain (CHD), residues 1-182 of 233, YHS domain removed; N-terminal MRGSH6GS tag kept, C-terminal extra Ala; codon-optimized gene in E. coli BL21(DE3)[pRep4]; class III ACs act as head-to-tail dimers
Text: cAMP formation determined by HPLC on MpAC1-182

[1] = target: full-length Mycobacterium phlei adenylyl cyclase, untagged MpAC_(1-233) (Mycobacterium phlei); test: protein dependence of adenylyl cyclase activity; dimer to monomers; dissociation constant calculated from the protein dependance of the AC activity; data not shown

| Km (MpAC1-233) [mM] | Km (MpAC1-182) [mM] | Kd [1] [nM] | Compound |
| --- | --- | --- | --- |
| 2.11 ± 0.54 | 0.9 ± 0.22 |  | Nc1ncnc2c1ncn2[C@@H]1O[C@H](COP(=O)(O)OP(=O)(O)OP(=O)(O)O)[C@@H](O)[C@H]1O [ATP] |
|  |  | 160 | full-length Mycobacterium phlei adenylyl cyclase, untagged MpAC_(1-233) (enzyme) |
